Source: US20190046513A1, “COMBINATION THERAPIES OF HDAC INHIBITORS AND TUBULIN INHIBITORS” (HUYA Bioscience International, LLC, priority 2017, published 2019)
Counter-ions that a name gives are not always drawn.

Experiments:
Format in all cases: in vivo, BALB/c mice
[1] = tested on: 4T1 murine mammary carcinoma cells; experiment: Lung metastasis count, 4T1 tumor-bearing mice (Example 2); conditions: HBI-8000 50 mg/kg p.o. qd×16, eribulin 1 mg/kg i.v., Day 18, FIG. 3
Experimental: (§1) In the present example, HBI-8000 was tested as monotherapy at 50 mg/kg, and in combination with eribulin mesylate at 1.0 mg/kg. The experiment included a vehicle-treated group, and eribulin at 1.0 mg/kg, which served as the control groups for analysis of efficacy.
Two study groups were used; in the first group, a sentinel group (termed LOOK-SEE) tumor-bearing mice were monitored for the development of lung metastases until the number of metastatic nodules reached 30-50 per animal. After meeting that criteria, all animals in Group B, the main study group, were euthanized on Day 18, the lungs removed and processed for analysis of metastatic burden.
(§2) Tumor Implantation: Cells were harvested during exponential growth, and resuspended in cold DMEM. Each mouse was inoculated subcutaneously in the right flank with 0.5×10^6 4T1 cells (0.1 mL of cell suspension). Tumors were calipered in two dimensions to monitor growth as their mean volume approached the desired 100-150 mm^3 range. Tumor burden was calculated using the formula:
where w=width and 1=length, in mm, of the tumor. Tumor weight may be estimated with the assumption that 1 mg is equivalent to 1 mm3 of tumor volume. […]

[2] = tested on: 4T1 murine mammary carcinoma cells; experiment: Lung metastasis count, 4T1 tumor-bearing mice (Example 1, Study Group B); conditions: Example 1, monotherapies; Day 14
Experimental: (§3) In the present example, HBI-8000 was tested as monotherapy at 50 mg/kg, and in combination with eribulin mesylate at 0.3 mg/kg and 1.0 mg/kg. The experiment included a vehicle-treated group, and eribulin at 0.3 mg/kg and 1.0 mg/kg, which served as the control groups for analysis of efficacy.
In the second group (Study Group B, tumor-bearing mice were monitored for the development of lung metastases until the number of metastatic nodules reached 30-50 per animal. All animals were euthanized on Day 14, the lungs removed and processed for analysis of metastatic burden.
where w=width and 1=length, in mm, of the tumor. Tumor weight may be estimated with the assumption that 1 mg is equivalent to 1 mm^3 of tumor volume. […]
Lung Metastasis: Animals were sacrificed at endpoint using isoflurane anesthesia and necropsies were performed to identify metastases. […] Percent inhibition was defined as the difference between the number of metastatic foci of the designated control group and the number of metastatic foci of the drug-treated group, expressed as a percentage of the number of metastatic foci of the designated control group: […]
Statistics: Prism (GraphPad) for Windows 6.07 was used for graphical presentations and statistical analyses. […] Logrank analysis includes the data for all animals in a group except those assessed as NTR deaths. […]

[3] = tested on: 4T1 murine mammary carcinoma cells; experiment: Tumor growth delay, subcutaneous 4T1 tumors (Example 1, Study Group A); conditions: for Median TTE: endpoint tumor volume 1000 mm^3, n=10; for % TGD: vs vehicle group
Experimental: as §3
Two study groups were used; in the first group (Study Group A) tumor growth inhibition and survival were measured. Tumors were measured twice per week until the study was ended on Day 21. Each animal was euthanized when its tumor attained the endpoint tumor volume of 1000 mm^3 or on the final day of the study, whichever came first, and the time to endpoint (TTE) for each mouse was calculated. Treatment response was determined from an analysis of percent tumor growth delay (% TGD), defined as the percent increase in the median time to endpoint (TTE) for treated versus control mice; and by log-rank significance of differences in survival among groups and regression responses.
Mice: Female BALB/c mice (Charles River Laboratories) were seven weeks old, with a body weight (BW) range of 15.6 to 20.2 grams on Day 1 of the study. The animals were fed ad libitum water (reverse osmosis, 1 ppm Cl), and NIH 31 Modified and Irradiated Lab Diet® consisting of 18.0% crude protein, 5.0% crude fat, and 5.0% crude fiber. The mice were housed on irradiated Enrich-O'Cobs™ Laboratory Animal Bedding in static microisolators on a 12-hour light cycle at 20-22° C. (68-72° F.) and 40-60% humidity.
Tumor Cells: 4T1 murine mammary carcinoma cells were maintained in Dulbecco's Modified Eagle Medium (DMEM) supplemented with 10% fetal bovine serum and 2 mM glutamine, 100 units/mL penicillin G sodium, 100 μg/mL streptomycin sulfate, and 25 μg/mL gentamicin. Cell cultures were maintained in tissue culture flasks in a humidified incubator at 37° C., in an atmosphere of 5% CO2 and 95% air.
as §2, with “1×10^6” for “0.5×10^6”
where w=width and 1=length, in mm, of the tumor. Tumor weight may be estimated with the assumption that 1 mg is equivalent to 1 mm^3 of tumor volume. Nine days after tumor implantation, which was designated as Day 1 of the study, animals with individual tumor volumes from 108 to 126 mm^3 were sorted into treatment groups. For Study Group A the animals were sorted into 6 treatment groups (Table 1; n=10/group) with group mean tumor volume of 117 mm^3. For Study Group B the animals were also sorted into 6 treatment groups (Table 1; n=5/group) with group mean tumor volume of 117 mm^3.
Tumor Growth Delay: Tumors were measured using calipers twice per week, and each animal was euthanized when its tumor reached a volume of 1000 mm^3 or at the end of the study (D47), whichever came first. Animals that exited the study for tumor volume endpoint were documented as euthanized for tumor progression (TP), with the date of euthanasia. The time to endpoint (TTE) for analysis was calculated for each mouse by the following equation: […]
where TTE is expressed in days, endpoint volume is expressed in mm^3, b is the intercept, and m is the slope of the line obtained by linear regression of a log-transformed tumor growth data set. The data set consisted of the first observation that exceeded the endpoint volume used in analysis and the three consecutive observations that immediately preceded the attainment of this endpoint volume. The calculated TTE is usually less than the TP date, the day on which the animal was euthanized for tumor burden. […]

[4] = tested on: 4T1 murine mammary carcinoma cells; experiment: Primary tumor volume distribution, 4T1 tumor-bearing mice (Example 2); conditions: HBI-8000 50 mg/kg p.o. qd×16, eribulin 1 mg/kg i.v., FIG. 4
Experimental: as §1, §2
where w=width and 1=length, in mm, of the tumor. Tumor weight may be estimated with the assumption that 1 mg is equivalent to 1 mm3 of tumor volume. Fourteen days after tumor implantation, which was designated as Day 1 of the study, animals with individual tumor volumes from animals with individual tumor volumes ranging from 75 to 108 mm3 were sorted into the “LOOK-SEE” group (n=15) and eight efficacy groups (n=10) with group mean tumor volumes of 95 mm3.
Treatment: On Day 1 of the study, mice bearing established 4T1 tumors began dosing according to the treatment plan described below. All agents were administered in dosing volumes of 10 mL/kg; volumes were adjusted according to BW of the individual animal. […]

[5] = Eribulin mesylate 0.3 mg/kg i.v., qowk × 2
[6] = Eribulin mesylate 1.0 mg/kg i.v., qowk × 2
[7] = HBI-8000 50 mg/kg p.o., qd × 21

Compound: C=C1C[C@@H]2CC[C@@]34C[C@H]5O[C@H]6[C@@H](O3)[C@H]3OC(CC[C@@H]3O[C@H]6C5O4)CC(=O)C[C@@H]3[C@@H](OC)[C@@H](C[C@H](O)CN)O[C@H]3CC3O[C@@H](CCC1O2)C[C@@H](C)C3=C [Eribulin mesylate, 11,15:18,21:24,28 Triepoxy-7,9-ethano-12,15-methano-9H, 15H-furo[3,2-i]furo[2′,3′: 5,6]pyrano[4,3b][1,4]dioxacyclopentacosin-5(4H)-one,2-[(2S)-3-amino-2-hydroxypropyl]hexacosahydro-3 methoxy-26-methyl-20,27-bis(methylene)-, (2R,3R,3aS,7R,8aS,9S,10aR,11S,12R,13aR,13bS,15S,18S,21 S,24S,26R,28R,29aS)-, methanesulfonate (salt)]
- metastatic lung foci [1]: did not produce a statistically significant decrease in metastatic lung foci
- number of lung metastatic foci [2]: did not significantly inhibit the number of lung metastatic foci
- Median TTE [3, 5]: 17.8 days
- % TGD [3, 5]: 6%
- Median TTE [3, 6]: 17.6 days
- % TGD [3, 6]: 5%
- primary tumor volume distribution [4]: did not produce a statistically significant decrease in primary tumor volume distribution

Compound: Nc1cc(F)ccc1NC(=O)c1ccc(CNC(=O)/C=C/c2cccnc2)cc1 [HBI-8000, N-(2-amino-4-fluorophenyl)-4-[[[(2E)-1-oxo-3-(3-pyridinyl)-2-propen-1-yl]amino]methyl]benzamide]
- metastatic lung foci [1]: statistically significant (P<0.05) decrease in metastatic lung foci
- number of lung metastatic foci [2]: did not significantly inhibit the number of lung metastatic foci
- tumor volume distribution ([3]; Example 1, HBI-8000 monotherapy 50 mg/kg, P<0.01): significant ((P<0.01) reduction in the tumor volume distribution
- Median TTE [3, 7]: 18.8 days
- % TGD [3, 7]: 12%
- primary tumor volume distribution [4]: statistically significant (P<0.001) decrease in primary tumor volume distribution compared to vehicle controls
